Experimental data from patent US9493432B2, “Cyclopentylbenzamide derivatives and their use for the treatment of psychotic and cognitive disorders” (Takeda Pharmaceutical Company Limited, priority 2013, dated 2016).

molecular target: human orexin receptor 1 (Homo sapiens (Human), UniProt O43613); experiment: Orexin antagonist activity, intracellular calcium FLIPR assay (orexin receptor 1); type: cell-based; conditions: RBL-2H3 cells stably expressing human orexin receptor 1; Ca2+ dye FLIPR; compound 15 minutes before orexin-A at approximately 80% maximal response; read-out: Human Orexin1R IC50
Experimental: (§1) Orexin antagonist activity was determined by measuring changes in intracellular calcium levels using a Ca^2+ sensitive fluorescent dye. The changes in fluorescent signal were monitored by Fluorescent Imaging Plate Reader (FLIPR™) technology available from Molecular Devices, LLC, U.S.A. Orexin mediated increases in intracellular Ca^2+ concentration were readily detected upon activation with orexin-A. Twenty-four hours prior to the assay, RBL-2H3 cells stably expressing either human orexin receptor 1 or human orexin receptor 2 were seeded in cell culture medium in black, clear-bottom 384-well plates (commercially available from Corning Inc., U.S.A.) and grown overnight at 37° C., 5% CO2. On the day of the assay, cell culture media was removed and cells were loaded with Calcium 5 Dye (commercially sold by Molecular Devices, LLC, U.S.A.) for 1 hour at 37° C., 5% CO2. Test compounds (at 10 point half log concentration response curves from 10 μM) were added to cells for 15 minutes prior to the addition of orexin-A to all wells, to achieve a final concentration that produces approximately an 80% maximal response. The IC50 values were determined from ten point concentration response curves. Curves were generated using the average of two wells for each data point.

Sequence of human orexin receptor 1 (O43613 whole entry): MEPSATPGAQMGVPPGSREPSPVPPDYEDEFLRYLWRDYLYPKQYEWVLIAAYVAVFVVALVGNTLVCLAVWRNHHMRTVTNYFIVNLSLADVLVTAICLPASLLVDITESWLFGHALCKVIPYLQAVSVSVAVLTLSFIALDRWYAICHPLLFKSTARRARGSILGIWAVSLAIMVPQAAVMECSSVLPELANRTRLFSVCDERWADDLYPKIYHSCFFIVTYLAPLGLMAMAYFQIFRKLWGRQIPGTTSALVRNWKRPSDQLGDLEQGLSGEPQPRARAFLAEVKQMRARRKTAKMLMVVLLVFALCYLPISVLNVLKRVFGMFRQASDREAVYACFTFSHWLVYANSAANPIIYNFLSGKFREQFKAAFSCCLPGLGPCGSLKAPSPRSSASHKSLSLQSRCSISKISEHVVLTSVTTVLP

IC50 [µM]	Compound
0.029	COc1cccc(OC)c1C(=O)N[C@@H]1COC[C@H]1Nc1nc2ccc(F)cc2s1 (relative stereo) [Example 65, trans-N-{4-[(6-Fluoro-1,3-benzothiazol-2-yl)amino]oxolan-3-yl}-2,6-dimethoxybenzamide]
0.27	O=C(NC1CCC[C@@H]1Nc1nc2ccc(F)cc2s1)c1c(Cl)cccc1Cl (stereo in doubt) [Example 52, 2,6-Dichloro-N-[(1S,2S)-2-[(6-fluoro-1,3-benzothiazol-2-yl)amino]-cyclopentyl]benzamide]
0.024	O=C(N[C@H]1CCC[C@@H]1Nc1nc2ccc(F)cc2s1)c1cc(F)ccc1-c1ncccn1 [Example 42, 5-Fluoro-N-[(1S,2S)-2-[(6-fluoro-1,3-benzothiazol-2-yl)amino]cyclopentyl]-2-(pyrimidin-2-yl)benzamide]
0.08	O=C(N[C@H]1CCC[C@@H]1Nc1nc2ccc(F)cc2s1)c1cc(F)ccc1-n1ccnn1 [Example 45, 5-Fluoro-N-[(1S,2S)-2-[(6-fluoro-1,3-benzothiazol-2-yl)amino]cyclopentyl]-2-(1H-1,2,3-triazol-1-yl)benzamide]
0.47	O=C(N[C@H]1CCC[C@@H]1Nc1nc2ccc(F)cc2s1)c1ccccc1OC(F)F [Example 55, 2-(Difluoromethoxy)-N-[(1S,2S)-2-[(6-fluoro-1,3-benzothiazol-2-yl)amino]-cyclopentyl]benzamide]
0.54	COc1cccc(C(=O)N[C@H]2CCC[C@@H]2Nc2nc3ccc(F)cc3s2)c1 [Example 56, N-[(1S,2S)-2-[(6-Fluoro-1,3-benzothiazol-2-yl)amino]cyclopentyl]-3-methoxybenzamide]
0.87	O=C(N[C@H]1CCC[C@@H]1Nc1nc2ccc(F)cc2s1)c1ccccc1C1CC1 [Example 58, 2-Cyclopropyl-N-[(1S,2S)-2-[(6-fluoro-1,3-benzothiazol-2-yl)amino]-cyclopentyl]benzamide]

Continued, compound first:

Compound	IC50 [µM]
Cc1ccc(-n2nccn2)c(C(=O)N[C@@H]2COC[C@@H]2Cc2nc3ccccc3s2)c1 (relative stereo) [Example 102, cis-N-[4-(1,3-Benzothiazol-2-ylmethyl)oxolan-3-yl]-5-methyl-2-(2H-1,2,3-triazol-2-yl)benzamide]	0.079
Cc1ccc(-n2nccn2)c(C(=O)NC2CCCC2Cc2nc3ccc(Cl)cc3s2)c1 (stereo not shown) [Example 33, N-{2-[(6-Chloro-1,3-benzothiazol-2-yl)methyl]cyclopentyl}-5-methyl-2-(2H-1,2,3-triazol-2-yl)benzamide]	0.051
Cc1cccc(C(=O)N[C@H]2CCC[C@@H]2Nc2nc3ccc(F)cc3s2)c1 [Example 57, N-[(1S,2S)-2-[(6-Fluoro-1,3-benzothiazol-2-yl)amino]cyclopentyl]-3-methylbenzamide]	0.78

molecular target: human orexin receptor 2 (Homo sapiens (Human), UniProt O43614); experiment: Orexin antagonist activity, intracellular calcium FLIPR assay (orexin receptor 2); type: cell-based; conditions: RBL-2H3 cells stably expressing human orexin receptor 2; Ca2+ dye FLIPR; compound 15 minutes before orexin-A at approximately 80% maximal response; read-out: Human Orexin2R IC50
Experimental: as §1

Sequence of human orexin receptor 2 (O43614 whole entry): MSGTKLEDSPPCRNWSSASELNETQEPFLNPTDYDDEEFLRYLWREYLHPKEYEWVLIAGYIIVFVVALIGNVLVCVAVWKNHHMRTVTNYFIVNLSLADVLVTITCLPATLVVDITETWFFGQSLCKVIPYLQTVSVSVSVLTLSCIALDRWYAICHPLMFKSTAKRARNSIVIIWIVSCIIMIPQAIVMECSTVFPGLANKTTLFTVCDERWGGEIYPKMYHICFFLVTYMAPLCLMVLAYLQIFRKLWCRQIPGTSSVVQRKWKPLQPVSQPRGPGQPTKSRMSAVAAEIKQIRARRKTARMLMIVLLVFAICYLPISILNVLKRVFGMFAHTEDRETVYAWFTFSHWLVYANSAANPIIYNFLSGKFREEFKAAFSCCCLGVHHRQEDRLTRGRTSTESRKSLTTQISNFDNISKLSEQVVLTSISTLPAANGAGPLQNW

IC50 [µM]	Compound
> 10	COc1cccc(OC)c1C(=O)N[C@@H]1COC[C@H]1Nc1nc2ccc(F)cc2s1 (relative stereo) [Example 65, trans-N-{4-[(6-Fluoro-1,3-benzothiazol-2-yl)amino]oxolan-3-yl}-2,6-dimethoxybenzamide]
4.7	O=C(N[C@H]1CCC[C@@H]1Nc1nc2ccc(Cl)cc2s1)c1ccccc1-n1nccn1 [Example 91, N-[(1S,2S)-2-[(6-Chloro-1,3-benzothiazol-2-yl)amino]cyclopentyl]-2-(2H-1,2,3-triazol-2-yl)benzamide]

The remaining lines, values behind:

Compound	IC50 [µM]
5-Methyl-N-((1S,2S)-2-(quinoxalin-2-ylamino)cyclopentyl)-2-(2H-1,2,3-triazol-2-yl) benzamide [Example 21]	5.1
Cc1ccc(-n2nccn2)c(C(=O)N[C@@H]2COC[C@@H]2Cc2nc3ccccc3s2)c1 (relative stereo) [Example 102, cis-N-[4-(1,3-Benzothiazol-2-ylmethyl)oxolan-3-yl]-5-methyl-2-(2H-1,2,3-triazol-2-yl)benzamide]	> 10
O=C(NC1CC(F)(F)CC1Nc1nc2ccc(Cl)cc2s1)c1ccccc1-n1nccn1 (single isomer, unassigned) [Example 105, N-{2-[(6-Chloro-1,3-benzothiazol-2-yl)amino]-4,4-difluorocyclopentyl}-2-(2H-1,2,3-triazol-2-yl)benzamide]	3.54
O=C(NC1CC(F)(F)CC1Nc1nc2ccc(Cl)cc2s1)c1ccccc1-n1nccn1 (single isomer, unassigned) [Example 106, N-{2-[(6-Chloro-1,3-benzothiazol-2-yl)amino]-4,4-difluorocyclopentyl}-2-(2H-1,2,3-triazol-2-yl)benzamide]	0.441
